# Publication PMC12040169 (PLOS Biology, 2025)
# Experiment: in vitro
# Settings: human, hela cells, % viability
row,SMILES,"viability at 28.5 h, 10 µM [%]"
1,O=S(=O)(Nc1cc(F)cc(C(F)(F)F)c1)c1cc2c(N3CCNCC3)nccc2s1 [CBK038102C],95.5
2,CC(C)c1ccc(NS(=O)(=O)c2cc3c(N4CCNCC4)nccc3s2)cc1 [CBK038104C],91.4
3,Cn1nc(C2CC2)cc1NS(C)(=O)=O [CBK038148],93.9
4,CS(=O)(=O)Nc1nnc(C(F)(F)F)s1 [CBK038168],97.6
5,COc1ccc([C@@]23CC[C@@H](NC(=O)CNc4ccc(Cl)c(Cl)c4)C[C@@H]2N(C)CC3)cc1OC [CBK038220],94.4
6,COc1ccc([C@@]23CC[C@@H](NC(=O)Nc4ccc(Cl)c(C(F)(F)F)c4)C[C@@H]2N(C)CC3)cc1OC [CBK038224C],98.4
7,COC12CCCC(C(=O)O)(CCC1)C2 [CBK038238],93.8
8,CN(C)CCNc1nccc2sc(S(=O)(=O)NCCC3=CCCCC3)cc12 [CBK038244C],108
9,COc1cc(CNS(=O)(=O)c2cc3c(NCCN(C)C)nccc3s2)cc(OC)c1OC [CBK038246C],91.8
10,CC(=O)Oc1cc(C)cc(C#N)c1 [CBK038296],87.6
11,CC1(C)OCC2(CCN(C(C)(C)C)CC2)O1 [CBK038298],93.2
12,[O-][S+](c1ccc(Cl)c(Cl)c1)c1cc2c(N3CCCNCC3)nccc2s1 (stereo not drawn) [CBK038304C],71.2
13,C=CCN(c1ccccc1)S(=O)(=O)c1ccc(Br)cc1CC [CBK038344],95.8
14,COc1ccc(C(F)(F)F)cc1N [CBK038366],89.6
15,OC1CCN(c2nccc(C(F)(F)F)n2)CC1 [CBK038372],92.1
16,CC(C)(C)c1ccc(S(=O)(=O)N2CCC3(CC2)OCCO3)cc1 [CBK038429],111
17,CC(C)(C)CC(C)(C)NC(=O)NCCc1cccs1 [CBK038697],91.8
18,CC(=O)Nc1cccc(C(=O)O)c1Cl [CBK038814],94.1
19,COc1ccc([C@@]23CC[C@@H](NC(=O)Nc4cccc5nsnc45)C[C@@H]2N(C)CC3)cc1OC [CBK038874T],86.8
20,CC(C)c1nsc(NS(=O)(=O)c2cccc(C(F)(F)F)c2)n1 [CBK038881],98.3
21,O=C(O)c1cccc(NS(=O)(=O)Cc2ccccc2)c1 [CBK038894],96.4

row,SMILES,"viability at 28.5 h, 10 µM [%]"
1,O=C(O)c1cccc(NS(=O)(=O)Cc2ccccc2[N+](=O)[O-])c1 [CBK038906],97.8
2,COc1ccc(/C=C(\C)C(=O)NCc2ccc(OC3CCNCC3)cc2)cc1OC [CBK038914T],90.9
3,Cc1oc(-c2ccccc2)cc1C(=O)NCc1ccc(OC2CCNCC2)cc1 [CBK038915T],108
4,O=C(/C=C/c1cccnc1)Nc1cncc(OC2CCNCC2)n1 [CBK038919T],96.9
5,CC1(C)CC(=O)C=C(C(=O)Nc2cncc(OC3CCNCC3)n2)O1 [CBK038922T],103
6,CC1(C)CC(=O)C=C(C(=O)Nc2ccccc2N2CCCNCC2)O1 [CBK038935T],112
7,Cc1oc(-c2ccccc2)cc1C(=O)Nc1cc2ccccc2c(N2CCNCC2)n1 [CBK038938T],104
8,O=C(NCc1ccc(OC2CCNCC2)cc1)c1coc2c1C(=O)CCC2 [CBK038944T],101
9,O=C(/C=C/c1cccnc1)NCc1ccc(OC2CCNCC2)cc1 [CBK038945T],88.7
10,CC1(C)CC(=O)C=C(C(=O)NCc2ccc(OC3CCNCC3)cc2)O1 [CBK038948T],96.1
11,COc1cccc(CS(=O)(=O)c2c(Br)sc3ccnc(N4CCNCC4)c23)c1 [CBK038956C],95.1
12,CN1CCN(C(=O)c2cccc(NS(=O)(=O)c3cc(Cl)sc3Cl)c2)CC1 [CBK038966],96.2
13,Cc1noc(C)c1S(=O)(=O)Nc1cccc(C(=O)N2CCN(C)CC2)c1 [CBK038972],101
14,CCCc1ccc(S(=O)(=O)Nc2cccc(C(=O)Nc3ccc(F)cc3)c2)cc1 [CBK038978],97.4
15,CCN(CC)C(=O)c1cccc(NS(=O)(=O)c2cccc3cccnc23)c1 [CBK038999],66.5
16,COC(=O)c1ccsc1NS(=O)(=O)c1ccc(Br)cc1 [CBK039058],94.1
17,COC(=O)c1ccsc1NS(=O)(=O)c1ccc(NC(C)=O)cc1 [CBK039063],87.7
18,COC(=O)c1ccsc1NS(=O)(=O)Cc1ccccc1 [CBK039067],108
19,Cc1ccc(C(=O)N2CCCN(C(=O)CN3CCCC3)C2)cc1 [CBK039081],87.2
20,Cc1ccc(C(=O)N2CCN(CC(=O)N3CCCC3)CC2)cc1 [CBK039096],110
21,NC1=NC(=O)C(CC(=O)Nc2ccccc2Cl)S1 (stereo not drawn) [CBK039145],99.1

row,SMILES,"viability at 28.5 h, 10 µM [%]"
1,OCCOc1cccnc1OCCN1CCCC1 [CBK039174],85.3
2,CN1CCCC1CCOc1ncccc1OCCO (stereo not drawn) [CBK039176],118
3,COc1cc([C@@]23CC[C@@H](NC(=O)Nc4cccc(Cl)c4)C[C@@H]2N(C)CC3)cc(OC)c1OC [CBK039212],93.7
4,COc1ccc2[nH]c3c(c2c1)CCNC31CCCN(CCc2ccc(F)cc2)C1 (stereo not drawn) [CBK039246],90.9
5,Cc1cccc(CCN2CCC3(CC2)NCCc2c3[nH]c3ccc(Br)cc23)c1 [CBK039280],83.3
6,Cc1ccc2[nH]cc(CCN3CCC4(CC3)NCCc3c4[nH]c4ccc(OCc5ccccc5)cc34)c2c1 [CBK039342],91.8
7,COc1ccc2[nH]c3c(c2c1)CCNC31CCN(Cc2cc(F)cc(F)c2)C1 (stereo not drawn) [CBK039368],81.9
8,O=C1Cc2c(ccc3ccccc23)C2(CCN(CC3CCCCO3)CC2)N1 (stereo not drawn) [CBK039395],98.8
9,Cc1ccc(C(=O)CN2CCC3(CC2)NCCc2c3[nH]c3ccc(F)cc23)cc1 [CBK039503],107
10,Cc1cccc2c3c([nH]c12)C1(CCN(CC2CC2)C1)NCC3 (stereo not drawn) [CBK039520],95.8
11,Cc1ccc2[nH]c3c(c2c1)CCNC31CCN(CC2CCCCO2)CC1 (stereo not drawn) [CBK039545],103
12,Cc1ccc(C(=O)CN2CCCC3(C2)NCCc2c3[nH]c3c(C)cccc23)cc1 (stereo not drawn) [CBK039546],96
13,Cc1cccc2c3c([nH]c12)C1(CCCN(CCc2ccc([N+](=O)[O-])cc2)C1)NCC3 (stereo not drawn) [CBK039558],92.4
14,O=CN1CCc2c([nH]c3ccccc23)C12CCCN(Cc1ccc(C(F)(F)F)cc1)C2 (stereo not drawn) [CBK039587],92.6
15,COc1cccc(CN2CCC3(C2)c2[nH]c4c(C)cccc4c2CCN3C(C)=O)c1 (stereo not drawn) [CBK039662],84.9
16,CC(=O)N1CCc2c([nH]c3ccccc23)C12CCCN(CCC#N)C2 (stereo not drawn) [CBK039665],91.6
17,CC(=O)N1CCc2c([nH]c3cc(F)ccc23)C12CCN(CCC#N)CC2 [CBK039692],95.7
18,CC(=O)N1CCc2c([nH]c3c(C)cccc23)C12CCCN(CCCC#N)C2 (stereo not drawn) [CBK039705],104
19,CC(=O)N1CCc2c([nH]c3ccc(Br)cc23)C12CCN(CCCC#N)CC2 [CBK039724],83.2
20,Cc1cccc2c3c([nH]c12)C1(CCN(CCCC#N)CC1)NCC3 [CBK039818],90.8
21,Cc1cccc2c1CC(=O)NC21CCN(Cc2ccccc2)CC1 [CBK039819],87
